Test [1] deals with normal skin tissue-derived fibroblasts. Description: Cell viability of normal skin tissue-derived fibroblasts after TUDCA treatment (WST-1). It is filed as cell-based, human. The note with it: 12 hours after exposure to TUDCA; smaller effect than in keloid fibroblasts (FIG. 5C). On the procedure:
(§1) Human keloid-derived fibroblasts and normal skin-derived fibroblasts were cultured in Dulbecco's modified Eagle's medium (DMEM; Invitrogen), 10% fetal bovine serum (FBS; Hyclone, Logan, Utah, USA), 100 U/mL penicillin and 100 µg/mL streptomycin (Invitrogen) media at 5% CO2. Keloid-derived fibroblasts are placed 1×10^4/well on 96-well plates, after treatment with tauroursodeoxycholic acid (TUDCA; Merck Millipore, Billerica, Mass., USA) for 24 hours, cell proliferation was measured with an enzyme-linked immunosorbent assay reader using a 450 nm WST-1 (Roche Diagnostics Corporation, Indianapolis, Ind., USA) assay.
(§2) After treatment with TUDCA, the viability of human keloid tissue-derived fibroblasts and normal skin tissue-derived fibroblasts was evaluated.
Background: Tetrazolium dyes change colour on reduction, which living cells bring about.

Test [2] relates to rabbit ear scar (keloid animal model). Description: Rabbit ear scar model, intralesional injection. It is filed as in vivo, New Zealand white rabbit. On the procedure: Animal studies were performed with the approval of the Preclinical Research Center (CNUH-019-A0079) of Chungnam National University Hospital. A 12-month-old female New Zealand white rabbit weighing about 4 kg was purchased from Damul Science (Daejeon, Korea), and all rabbits were kept individually in cages and received humane care according to institutional guidelines. After anesthetizing rabbits with a mixture of ketamine (60 mg/kg) and xylazine (5 mg/kg), the side ear hairs were shaved, disinfected with povidone-iodine, and then anesthetized. Next, after using a 10 mm biopsy punch to make 2 circular wounds with a diameter of 10 mm on the ventral surface of each ear, and covering the wound with an adhesive polyurethane dressing (Tegaderm; 3M, Minneapolis, Minn., USA), and once a day, the wound areas were disinfected with physiological saline and observed, and the adhesive polyurethane dressing was replaced. After wound formation, a simple dressing was maintained for 20 days to form a thick scar tissue, and on days 20 and 25 after wounding, saline, steroid (10 mg/mL) or TUDCA (10 mg/mL) was administered to the dermal region of the rabbit ear scar using a 30-gauge syringe (FIG. 1).
6. Scar Elevation Index (SEI) Calculation (Methods for Evaluating Keloid Tissue) SEI gives the ratio of total hypertrophic scar area to normal tissue present beneath the scar. In the present invention, the region where the cartilage layer is left as it is and the skin layer is excised is the B region. Area A contains an excessive amount of soft tissue compared to the surrounding normal dermal layer. An SEI greater than 1 indicates the formation of hypertrophic scars, keloids (FIG. 2).
Next, the efficacy of TUDCA for keloid improvement in a rabbit ear scar model was investigated.
On days 20 and 25 after wounding, normal saline (NS), steroids (10 mg/mL) or TUDCA (10 mg/mL) were injected into the scar dermis.

Test [3] relates to COL1A2 and ER stress-related gene expression in human keloid tissue-derived fibroblasts. Description: COL1A2 and ER stress-related gene expression in TUDCA-treated keloid fibroblasts. It is filed as cell-based. The settings on record: TUDCA-treated human keloid tissue-derived fibroblasts (FIG. 5B).
The subject of test [4] is human keloid tissue-derived fibroblasts. Description: Cell viability of human keloid tissue-derived fibroblasts after TUDCA treatment (WST-1). It is filed as cell-based. The settings on record: 6 hours, 12 hours, and 24 hours after TUDCA treatment (FIG. 5A). As for the experimental part:
as §1, §2

In test [5] the test system is keloid pathway markers p-SMAD2/3 and TGFβ1. As to the kind of experiment: Western blotting of keloid pathway markers in fibroblasts. It is filed as cell-based, human. The note with it: significant difference in keloid-derived versus normal skin-derived fibroblasts (FIG. 5D). As for the experimental part: Tissues were homogenized using a TissueLyzer II (Qiagen, Hilden, Germany). Cells and tissues were lysed in RIPA buffer (30 mM Tris [pH 7.5], 150 mM sodium chloride, 1 mM sodium phenylmethylsulfonyl fluoride, 1 mM sodium orthovanadate, 1% Nonidet P-40, 10% glycerol, phosphatase and protease inhibitors). Western blot analysis was performed with 40 μg of protein using a commercially available antibody. Anti-CHOP, anti-pERK, anti-ERK, anti-IRE1α, anti-pIRE1α, anti-pSMAD2/3 and anti-β-actin antibodies were purchased from Cell Signaling Technology (Beverly, Mass., USA). Anti-COL1A1, anti-ATF4, anti-TGFβ1, anti-IL-1 antibodies and secondary antibodies were purchased from Santa Cruz Biotechnology (Santa Cruz, Calif., USA) was used. Immune response bands were visualized by enhanced chemiluminescence (ECL) (Bio-Rad, Hercules, Calif., USA), and images were scanned using an Odyssey imaging system and quantified using Image Studio Digits (LI-COR Biosciences, Lincoln, Nebr., USA).
Human keloid-derived fibroblasts and normal skin-derived fibroblasts were cultured in Dulbecco's modified Eagle's medium (DMEM; Invitrogen), 10% fetal bovine serum (FBS; Hyclone, Logan, Utah, USA), 100 U/mL penicillin and 100 µg/mL streptomycin (Invitrogen) media at 5% CO2. […]
as §2

On to `C[C@H](CCC(=O)NCCS(=O)(=O)O)[C@H]1CC[C@H]2[C@@H]3[C@@H](O)C[C@@H]4C[C@H](O)CC[C@]4(C)[C@H]3CC[C@]12C` [TUDCA, tauroursodeoxycholic acid], for which the “viability of normal skin tissue-derived fibroblasts” value in test [1] is reported as “decreased”. Moreover, in test [2] (10 mg/mL injected into scar dermis on days 20 and 25 after wounding, compared with saline group (FIG. 7)), the “gross appearance / healing of rabbit ear scars” value is “healed better”. Besides, in test [2] (10 mg/mL intralesional, days 20 and 25, control group 2.778±0.346, p=0.0263 steroid, p=0.0098 TUDCA vs control), the “Scar Elevation Index (SEI)” value was 1.586±0.074. In addition, the “irregular fiber deposition in scar tissue (H&E)” value in test [2] (10 mg/mL intralesional, days 20 and 25, tissue collected day 34, compared to saline group (FIG. 8)) is listed as “significantly reduced”. Also, the “decrease in SEI compared with the steroid group” value in test [2] (rabbit ear scar model, p=0.0215) is reported as “significantly greater decrease”. In addition, in test [3], the “COL1A2 gene expression level” value was “significantly reduced” and the “ER stress-related gene expression levels” value is given as “significantly reduced”. Besides, the cell viability result in test [4] is recorded as “significantly decreased”. In test [5], the “level of TGFβ1” value is recorded as “reduced” and the “level of p-SMAD2/3” value is “reduced”.
